The test system of data set [1] is rapid delayed rectifier potassium current (IKr). As to the kind of experiment: Whole-cell patch-clamp, rapid delayed rectifier potassium current in dog ventricular myocytes. It is filed as cell-based. The following applies: Canis lupus familiaris, Ventricular myocyte, tail current, dog left ventricular myocytes. As to the method:
(§1) The effects of SZV-2649 on transmemrane ionic currents were investigated in dog cardiac myocytes after a 5-minute superfusion of the drug.
The rapid delayed rectifier potassium current (IKr) was elicited from the holding potential of -80 mV following a prepulse to -40 mV. IKr tail current was measured at a post pulse to -40 mV after 1 s long test pulses from − 30 mV to 50 mV using 10 mV increments at the pulsing cycle length of 20 s (see inset of Fig. 4A). The effect of SZV-2649 was investigated at 1 and 5 µM concentrations.
(§2) Ventricular myocytes from Beagle dogs were enzymatically dissociated as described in detail previously. […]
(§3) The membrane currents were recorded with Axopatch-200B amplifiers (Molecular Devices, Sunnyvale, CA, USA) by means of the whole-cell configuration of the patch-clamp technique. […]
(§4) The inward rectifier (IK1), the transient outward (Ito), the rapid (IKr) and the slow (IKs) delayed rectifier potassium currents were recorded in HEPES-buffered Tyrode’s solution. […] When IKr was recorded, IKs was inhibited by using the selective IKs blocker HMR-1556 (0.5 µM). […]

Data set [2] relates to IKACh in dog atrial trabecular muscle preparations. As to the kind of experiment: Action potential duration in carbachol-pretreated dog atrial trabecular muscle. The note with it: 10 µM, after 1 µM carbachol for 10 min. The procedure: The possible effect of SZV-2649 on IKACh was investigated in dog atrial trabecular muscle preparations. Carbachol (1 µM) was added to the tissue bath for 10 min to activate IKACh. […] Application of 10 µM SZV-2649 prolonged APD substantially to a greater degree (100%) than could be expected by its effect on repolarization in the absence of carbachol (10%) as shown in Table 1; Fig. 5D.
Action potentials were recorded in cardiac ventricular trabeculae and papillary muscle preparations obtained from the right ventricles of Beagle dogs (10–15 kg) of either sex using the conventional microelectrode technique. Dogs were sacrificed by iv. sedation with xylazine (1 mg/kg), followed by i.v. administration of 50 mg/kg pentobarbital. After the cornea reflex disapeared the chest was opened, and the heart was rapidly removed. […]
Isolated papillary muscle or atrial trabecula and Purkinje fiber preparations were obtained and prepared from the right ventricle and were individually mounted in a tissue chamber with the volume of 50 ml. […] Transmembrane potentials were recorded using conventional glass microelectrodes, filled with 3 M KCl and having tip resistances of 5–20 MΩ, connected to the input of a high impedance electrometer (Experimetria, type 309, Budapest, Hungary) which was coupled to a dual beam oscilloscope. […]

Data set [3] has as its system slow delayed rectifier potassium current (IKs). As to the kind of experiment: Whole-cell patch-clamp, slow delayed rectifier potassium current in dog ventricular myocytes. The class given is cell-based. The note with it: 10 µM, dog left ventricular myocytes. The procedure: as §1
The slow delayed rectifier potassium current (IKs) was elicited from the holding potential of -80 mV with a prepulse to -40 mV. The IKs tail current was measured at a post pulse to -40 mV after 5-second-long test pulses from − 20 mV to 50 mV using 10 mV increments at the pulsing cycle length of 10 s (see inset of Fig. 4B). The effect of SZV-2649 was investigated at the concentration of 10 µM.
as §2, §3, §4

Data set [4] concerns L-type inward calcium current (ICaL). Put plainly: Whole-cell patch-clamp, L-type calcium current in dog ventricular myocytes. It is filed as cell-based. The note with it: 10 µM, dog left ventricular myocytes. As to the method: as §1
The L-type inward calcium current (ICaL) was measured from a holding potential of -80 mV with a 40 ms prepulse to -40 mV to inactivate INa (see inset of Fig. 3B). Test pulses of 400 ms duration from − 35 mV to 55 mV were applied with a pulsing cycle length of 3 s. In the internal (pipette) solution, KCl was replaced by 125 mM CsCl to block potassium currents.
Ventricular myocytes from Beagle dogs were enzymatically dissociated as described in detail previously. A single droplet of cell suspension was placed in a transparent recording chamber mounted on the stage of an inverted microscope (Olympus IX51, Olympus, Tokyo, Japan), and individual myocytes were allowed to settle and adhere to the chamber bottom for at least 5–10 min before superfusion was initiated and maintained by gravity. Only rod-shaped cells with clear striations were used. […]
as §3
The L-type calcium current (ICaL) was recorded in HEPES-buffered Tyrode’s solution supplemented with 3 mM 4-aminopyridine. […]

The compound `CC(N)COc1c(I)cc(C#N)cc1I.Cl` (stereo not drawn) [SZV-2649, 4-(2-aminopropoxy)-3,5-diiodobenzonitrile hydrochloride] returned a melting point of 216 to 219 °C. Further, the inhibition at 1 µM in data set [1] (1 µM) was about 23%. Also, the inhibition at 5 µM in data set [1] (5 µM) was about 75%. In addition, in data set [2], the “Prolongation of APD in the presence of carbachol” value was 100%. The “Effect on amplitude of IKs tail current” value in data set [3] is “did not change or only minimally decreased”. Moreover, the “Effect on magnitude of ICaL” value in data set [4] is reported as “moderately but significantly decreased”.

The values above are taken from paper PMC11455950, “Effects of SZV-2649, a new multiple ion channel inhibitor mexiletine analogue” (Scientific Reports, 2024).
